Measurements: article PMC3608202 (Biochemistry, 2013)

Target: Aβ(1–42) oligomers (Homo sapiens, UniProt P05067)
Assay: Short time oligomer dissociation assay
Type: biochemical
Conditions: 2h; 50 µM, 25 µM and 12.5 µM

Aβ(1–42) oligomers, sequence (P05067 672-713): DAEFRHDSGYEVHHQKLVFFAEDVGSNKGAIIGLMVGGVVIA

## O=C(O)c1cc(O)ccc1O [2,5-dihydroxybenzoic acid]
  Oligomer dissociation in short time assay: does result in disassembly
